Values after ≈ are worked out from the molar mass of the structure shown. Values belong to the molecule of their own block, whether it stands above or below them.
What was measured:
Test in all cases: ≥ marks a high value that may be exact or a test limit, other limits are often not marked, values filed in µg/mL are converted to µM
[1] = system: Escherichia coli NCTC 10418
[2] = system: Staphylococcus aureus NCTC 10788
[3] = system: Pseudomonas aeruginosa ATCC 27853
[4] = system: Candida albicans NCYC 1467
[5] = system: Escherichia coli MG1655
[6] = system: Bacillus subtilis 168 HT
[7] = system: Stenotrophomonas maltophilia ATCC 13637
[8] = system: Streptococcus pyogenes
[9] = system: Candida albicans ATCC 90112
[10] = system: Escherichia coli ATCC 25922
[11] = system: Bacillus subtilis ATCC 6633
[12] = system: Proteus mirabilis
[13] = system: Staphylococcus epidermidis
[14] = system: Micrococcus luteus ATCC 10240
[15] = system: Staphylococcus aureus ATCC 25923
[16] = system: Candida albicans ATCC 24433
[17] = system: Staphylococcus epidermidis ATCC 12228
[18] = system: Staphylococcus aureus USA 300 LAC
[19] = system: Klebsiella pneumoniae ATCC 13883
[20] = system: Escherichia coli K12 MG1655
[21] = system: Candida albicans MDM8
[22] = system: Micrococcus luteus A270
[23] = system: Staphylococcus aureus ATCC 29213
[24] = system: Serratia marcescens ATCC 4112
[25] = system: Staphylococcus aureus AS1.72
[26] = system: Escherichia coli AS1.349
[27] = system: Enterococcus faecalis CGMCC 1.595
[28] = system: Klebsiella pneumoniae subsp. pneumoniae CGMCC 1.176
[29] = system: Proteus mirabilis CICC 22931
[30] = system: Staphylococcus epidermidis CICC 23664
[31] = system: Enterococcus faecium CGMCC 1.2334
[32] = system: Pseudomonas aeruginosa CGMCC 1.860
[33] = system: Enterobacter cloacae CGMCC 1.58
[34] = system: Bacillus cereus AS1.126
[35] = system: Staphylococcus aureus USA 300
[36] = system: Pseudomonas aeruginosa PAO1

- MIC [5]: ≥ 99.1 µM
- MIC [6]: ≥ 99.1 µM
Compound: CC[C@H](C)[C@H](NC(=O)[C@H](CCCCN)NC(=O)[C@H](CCCCN)NC(=O)[C@H](CC(C)C)NC(=O)[C@H](Cc1cnc[nH]1)NC(=O)[C@H](CCCCN)NC(=O)[C@H](CCCCN)NC(=O)[C@H](CC(C)C)NC(=O)[C@@H](N)CCCN=C(N)N)C(=O)N[C@@H](CCCCN)C(=O)O [RLKKHLKKIK]

- MIC [7]: 15 µM (≈ 24.4 µg/mL)
- MIC [8]: 15 µM (≈ 24.4 µg/mL)
- MIC [9]: 7.5 µM (≈ 12.2 µg/mL)
- MIC [3]: 30 µM (≈ 48.7 µg/mL)
- MIC [10]: 30 µM (≈ 48.7 µg/mL)
- MIC [11]: 7.5 µM (≈ 12.2 µg/mL)
- MIC [12]: ≥ 60 µM
- MIC [13]: 30 µM (≈ 48.7 µg/mL)
- MIC [14]: 15 µM (≈ 24.4 µg/mL)
- MIC [15]: 60 µM (≈ 97.4 µg/mL)
Compound: CC[C@H](C)[C@H](NC(=O)[C@H](CC(C)C)NC(=O)CNC(=O)[C@H](CCCCN)NC(=O)[C@H](CC(C)C)NC(=O)[C@H](CC(N)=O)NC(=O)[C@@H](N)CC(C)C)C(=O)N[C@@H](CCCCN)C(=O)N[C@@H](CCCCN)C(=O)N[C@H](C(=O)N[C@@H](C)C(=O)N[C@@H](CO)C(=O)N[C@@H](CC(C)C)C(=O)N[C@@H](CC(C)C)C(=O)N[C@@H](CC(N)=O)C(=O)O)C(C)C [LNLKGLIKKVASLLN]

- MIC [16]: ≥ 50 µM
- MIC [10]: 25 µM (≈ 48.8 µg/mL)
- MIC [17]: 6.25 µM (≈ 12.2 µg/mL)
Compound: CC[C@H](C)[C@H](NC(=O)CNC(=O)CNC(=O)[C@H](C)NC(=O)[C@@H](NC(=O)[C@H](CCCCN)NC(=O)[C@@H]1CCCN1C(=O)[C@@H](NC(=O)[C@H](CC(C)C)NC(=O)[C@H](CO)NC(=O)[C@H](CC(C)C)NC(=O)[C@@H](N)Cc1ccccc1)[C@@H](C)CC)[C@@H](C)CC)C(=O)N[C@@H](C)C(=O)N[C@@H](CO)C(=O)N[C@@H](CC(C)C)C(=O)N[C@H](C(=O)N[C@@H](CCCCN)C(=O)N[C@@H](CC(N)=O)C(=O)N[C@@H](CC(C)C)C(N)=O)C(C)C [FLSLIPKIAGGIASLVKNL]

- MIC [16]: ≥ 100 µM
- MIC [10]: 100 µM (≈ 195 µg/mL)
- MIC [17]: 100 µM (≈ 195 µg/mL)
Compound: CC[C@H](C)[C@H](NC(=O)CNC(=O)CNC(=O)[C@H](C)NC(=O)[C@@H](NC(=O)[C@H](CCCCN)NC(=O)[C@@H]1CCCN1C(=O)[C@@H](NC(=O)[C@H](CC(C)C)NC(=O)[C@H](CO)NC(=O)[C@H](CC(C)C)NC(=O)[C@@H](N)Cc1ccccc1)[C@@H](C)CC)[C@@H](C)CC)C(=O)N[C@@H](C)C(=O)N[C@@H](CO)C(=O)N[C@@H](CC(C)C)C(=O)N[C@H](C(=O)N[C@@H](CCCCN)C(=O)N[C@@H](CC(=O)O)C(=O)N[C@@H](CC(C)C)C(N)=O)C(C)C [FLSLIPKIAGGIASLVKDL]

- MIC [25]: 12.5 µM (≈ 21.2 µg/mL)
- MIC [26]: 10 µM (≈ 17 µg/mL)
- MIC [27]: 10 µM (≈ 17 µg/mL)
- MIC [28]: ≥ 100 µM
- MIC [29]: ≥ 100 µM
- MIC [30]: 6.25 µM (≈ 10.6 µg/mL)
- MIC [31]: 12.5 µM (≈ 21.2 µg/mL)
- MIC [32]: 10 µM (≈ 17 µg/mL)
- MIC [33]: ≥ 100 µM
- MIC [34]: 20 µM (≈ 34 µg/mL)
Compound: CC[C@H](C)[C@H](N)C(=O)N[C@@H](CCCCN)C(=O)N[C@@H](CCCCN)C(=O)N[C@H](C(=O)N[C@@H](CC(C)C)C(=O)N[C@@H](CO)C(=O)N[C@@H](CCCCN)C(=O)N[C@H](C(=O)N[C@@H](CCCCN)C(=O)N[C@@H](CCCCN)C(=O)N[C@@H](Cc1c[nH]c2ccccc12)C(=O)N[C@@H](Cc1c[nH]c2ccccc12)C(=O)N[C@@H](CCCCN)C(=O)O)[C@@H](C)CC)[C@@H](C)CC [IKKILSKIKKWWK]

- MIC [25]: 2.5 µM (≈ 4.25 µg/mL)
- MIC [26]: 3.13 µM (≈ 5.32 µg/mL)
- MIC [27]: 2.5 µM (≈ 4.25 µg/mL)
- MIC [28]: ≥ 100 µM
- MIC [29]: ≥ 100 µM
- MIC [30]: 5 µM (≈ 8.5 µg/mL)
- MIC [31]: 10 µM (≈ 17 µg/mL)
- MIC [32]: 5 µM (≈ 8.5 µg/mL)
- MIC [33]: ≥ 100 µM
- MIC [34]: 25 µM (≈ 42.5 µg/mL)
Compound: CC[C@H](C)[C@H](N)C(=O)N[C@@H](CCCCN)C(=O)N[C@@H](CCCCN)C(=O)N[C@H](C(=O)N[C@@H](Cc1c[nH]c2ccccc12)C(=O)N[C@@H](CO)C(=O)N[C@@H](CCCCN)C(=O)N[C@H](C(=O)N[C@@H](CCCCN)C(=O)N[C@@H](CCCCN)C(=O)N[C@@H](CC(C)C)C(=O)N[C@@H](Cc1c[nH]c2ccccc12)C(=O)N[C@@H](CCCCN)C(=O)O)[C@@H](C)CC)[C@@H](C)CC [IKKIWSKIKKLWK]

The next lines start with the molecule.

Compound: CC(C)C[C@H](NC(=O)[C@H](CCCN=C(N)N)NC(=O)[C@H](CC(N)=O)NC(=O)[C@H](CC(C)C)NC(=O)[C@H](CCCCN)NC(=O)[C@H](CCCCN)NC(=O)[C@H](CC(C)C)NC(=O)[C@@H](NC(=O)[C@@H](N)CC(N)=O)C(C)C)C(=O)N[C@@H](CCCCN)C(=O)N[C@@H](CCC(=O)O)C(=O)N[C@@H](CCCCN)C(=O)N[C@@H](CC(N)=O)C(=O)N[C@@H](CCCCN)C(=O)N[C@@H](C)C(=O)N[C@@H](CCCCN)C(=O)N[C@@H](CC(N)=O)C(=O)N[C@@H](CO)C(=O)N[C@@H](CCCCN)C(=O)N[C@@H](CCC(=O)O)C(=O)N[C@@H](CC(N)=O)C(=O)N[C@@H](CC(N)=O)C(=O)O [NVLKKLNRLKEKNKAKNSKENN]
- MIC [1]: ≥ 196 µM
- MIC [2]: ≥ 196 µM
- MIC [3]: > 196 µM
- MIC [4]: ≥ 98 µM

Compound: CC[C@H](C)[C@H](NC(=O)[C@@H](N)CCCCN)C(=O)N[C@@H](Cc1c[nH]c2ccccc12)C(=O)N[C@@H](Cc1c[nH]c2ccccc12)C(=O)N[C@@H](Cc1c[nH]c2ccccc12)C(=O)N[C@@H](Cc1c[nH]c2ccccc12)C(=O)N[C@@H](CC(C)C)C(=O)N[C@@H](CCCN=C(N)N)C(N)=O [KIWWWWLR]
- MIC [18]: 3.1 µM (≈ 3.94 µg/mL)
- MIC [10]: 8.8 µM (≈ 11.2 µg/mL)
- MIC [19]: 12.5 µM (≈ 15.9 µg/mL)

Compound: CC[C@H](C)[C@H](N)C(=O)N[C@@H](CC(N)=O)C(=O)N[C@H](C(=O)N[C@H](C(=O)N[C@@H](CC(N)=O)C(=O)N[C@@H](C)C(=O)N1CCC[C@H]1C(=O)N[C@@H](CC(C)C)C(=O)N[C@@H](CCC(N)=O)C(=O)NCC(=O)N[C@@H](Cc1ccccc1)C(=O)N[C@@H](CCCCN)C(=O)N[C@H](C(=O)N[C@@H](C)C(=O)O)[C@@H](C)CC)[C@@H](C)CC)[C@@H](C)CC [INIINAPLQGFKIA]
- MIC [6]: 21.2 µM (≈ 32 µg/mL)
- MIC [20]: 10.6 µM (≈ 16 µg/mL)

Compound: CC(C)C[C@H](NC(=O)[C@H](CO)NC(=O)[C@H](Cc1ccccc1)NC(=O)[C@@H]1CCCN1C(=O)[C@@H](N)CCC(N)=O)C(=O)N[C@@H](CCC(=O)O)C(=O)N[C@@H](CCCN=C(N)N)C(=O)N[C@@H](Cc1c[nH]c2ccccc12)C(=O)O [QPFSLERW]
- MIC [21]: ≥ 189 µM
- MIC [22]: ≥ 94.5 µM
- MIC [23]: 189 µM (≈ 201 µg/mL)
- MIC [24]: ≥ 47.2 µM
- MIC [17]: 189 µM (≈ 201 µg/mL)

Compound: CC[C@H](C)[C@H](NC(=O)[C@H](CCCN=C(N)N)NC(=O)[C@H](CCCN=C(N)N)NC(=O)[C@H](CCCN=C(N)N)NC(=O)[C@H](Cc1c[nH]c2ccccc12)NC(=O)[C@H](Cc1c[nH]c2ccccc12)NC(=O)[C@@H](N)Cc1c[nH]c2ccccc12)C(=O)N[C@@H](Cc1c[nH]c2ccccc12)C(N)=O [WWWRRRIW]
- MIC [18]: 12.5 µM (≈ 16.8 µg/mL)
- MIC [35]: 12.5 µM (≈ 16.8 µg/mL)
- MIC [36]: 35.4 µM (≈ 47.5 µg/mL)
- MIC [10]: 25 µM (≈ 33.6 µg/mL)
- MIC [19]: 25 µM (≈ 33.6 µg/mL)
